Source: patent US10364238B2, “N-((het) arylmethyl)-heteroaryl-carboxamides compounds as plasma kallikrein inhibitors” (KALVISTA PHARMACEUTICALS LIMITED, priority 2014, dated 2019)

How the values were obtained:
Format in all cases: biochemical
Human plasma kallikrein = Human plasma kallikrein (Homo sapiens (Human), UniProt P03952); experiment: Determination of the IC50 for plasma kallikrein; conditions: 25° C., fluorogenic substrate H-DPro-Phe-Arg-AFC; read-out: IC50 (human PKaI)
Method: Determination of the IC50 for Plasma Kallikrein
(§1) Human plasma kallikrein (Protogen) was incubated at 25° C. with the fluorogenic substrate H-DPro-Phe-Arg-AFC and various concentrations of the test compound. Residual enzyme activity (initial rate of reaction) was determined by measuring the change in […] at 410 nm and the IC50 value for the test compound was determined.

Human KLK1 = Human KLK1 (Homo sapiens (Human), UniProt P06870); experiment: Determination of the IC50 for KLK1; conditions: 25° C., fluorogenic substrate H-DVal-Leu-Arg-AFC
Method: Determination of the IC50 for KLK1
as §1, with “KLK1 (Callbiochem)” for “plasma kallikrein (Protogen)”, “H-DVal-Leu-Arg-AFC” for “H-DPro-Phe-Arg-AFC”

Human FXIa = Human FXIa (Homo sapiens (Human), UniProt P03951); experiment: Determination of the % inhibition for FXIa; conditions: 40 μM test compound, 25° C., substrate Z-Gly-Pro-Arg-AFC
Method: Determination of the % Inhibition for FXIa
Human FXIa (Enzyme Research Laboratories) was incubated at 25° C. with the fluorogenic substrate Z-Gly-Pro-Arg-AFC and 40 μM of the test compound. Residual enzyme activity (initial rate of reaction) was determined by measuring the change in […].

Sequence of Human plasma kallikrein (P03952 391-638): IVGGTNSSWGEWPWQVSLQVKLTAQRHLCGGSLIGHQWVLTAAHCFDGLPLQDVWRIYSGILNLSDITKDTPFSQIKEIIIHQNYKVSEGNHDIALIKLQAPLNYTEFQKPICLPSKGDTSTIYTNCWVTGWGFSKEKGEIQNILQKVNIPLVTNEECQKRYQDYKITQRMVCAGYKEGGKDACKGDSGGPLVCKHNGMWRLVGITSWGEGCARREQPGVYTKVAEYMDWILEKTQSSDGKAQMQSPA
Sequence of Human plasma kallikrein (P03952 20-390 partner): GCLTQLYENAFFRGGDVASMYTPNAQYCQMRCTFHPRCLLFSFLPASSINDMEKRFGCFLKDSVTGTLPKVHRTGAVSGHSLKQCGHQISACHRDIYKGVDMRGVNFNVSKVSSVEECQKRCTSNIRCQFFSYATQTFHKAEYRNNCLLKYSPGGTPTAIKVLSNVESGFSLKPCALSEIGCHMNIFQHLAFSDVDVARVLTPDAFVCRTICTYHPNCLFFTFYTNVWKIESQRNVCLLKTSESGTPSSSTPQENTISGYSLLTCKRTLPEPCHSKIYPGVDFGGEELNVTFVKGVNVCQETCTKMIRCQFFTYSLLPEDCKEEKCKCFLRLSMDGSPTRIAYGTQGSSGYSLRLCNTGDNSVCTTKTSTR
Sequence of Human KLK1 (P06870 25-262): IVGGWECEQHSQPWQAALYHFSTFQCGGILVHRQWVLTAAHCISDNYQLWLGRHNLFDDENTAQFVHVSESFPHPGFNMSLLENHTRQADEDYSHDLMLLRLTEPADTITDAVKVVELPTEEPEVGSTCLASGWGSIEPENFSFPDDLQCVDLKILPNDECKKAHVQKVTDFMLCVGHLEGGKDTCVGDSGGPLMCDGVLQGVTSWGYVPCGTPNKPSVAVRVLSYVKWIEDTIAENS
Sequence of Human FXIa (P03951 388-625): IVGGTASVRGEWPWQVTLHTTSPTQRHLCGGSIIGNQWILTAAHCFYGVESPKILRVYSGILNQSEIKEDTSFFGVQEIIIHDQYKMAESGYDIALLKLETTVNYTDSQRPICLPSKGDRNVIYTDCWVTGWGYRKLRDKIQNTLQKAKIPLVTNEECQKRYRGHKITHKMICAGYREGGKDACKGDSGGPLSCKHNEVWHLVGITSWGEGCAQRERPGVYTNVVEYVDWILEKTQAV
Sequence of Human FXIa (P03951 19-387 partner): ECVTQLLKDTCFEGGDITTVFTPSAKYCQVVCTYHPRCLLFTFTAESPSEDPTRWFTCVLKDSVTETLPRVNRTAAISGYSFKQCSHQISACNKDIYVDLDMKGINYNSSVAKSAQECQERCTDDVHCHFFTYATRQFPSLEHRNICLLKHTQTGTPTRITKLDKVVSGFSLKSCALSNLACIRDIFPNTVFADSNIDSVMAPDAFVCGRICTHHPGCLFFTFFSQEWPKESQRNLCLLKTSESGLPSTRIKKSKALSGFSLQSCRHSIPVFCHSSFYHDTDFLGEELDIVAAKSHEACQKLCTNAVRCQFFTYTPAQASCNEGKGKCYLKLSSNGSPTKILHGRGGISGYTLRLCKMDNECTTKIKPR

| IC50 (Human plasma kallikrein) | IC50 (Human KLK1) | inhibition at 40 µM (Human FXIa) | % Inhibition @ 40 μM (human FXIa) (Human FXIa) | Structure (SMILES) |
| --- | --- | --- | --- | --- |
| 742 nM | > 10000 nM | 10% |  | COc1cccc(CNC(=O)c2cn(Cc3ccc(N4CCCC4)nc3)nc2C(F)(F)F)c1F [Example 126, N-[(2-fluoro-3-methoxyphenyl)methyl]-1-{[6-(pyrrolidin-1-yl)pyridin-3-yl]methyl}-3-(trifluoromethyl)pyrazole-4-carboxamide] |
| 647 nM | > 10000 nM | 2% |  | NC(=O)c1ccccc1CNC(=O)c1cn(Cc2ccc(Cn3ccccc3=O)cc2)nc1C1CC1 [Example 48, N-[(2-carbamoylphenyl)methyl]-3-cyclopropyl-1-({4-[(2-oxopyridin-1-yl)methyl]phenyl}methyl)pyrazole-4-carboxamide] |
| 90.2 nM | > 10000 nM | 1% |  | COCc1nn(Cc2ccc(Cn3ccccc3=O)cc2)cc1C(=O)NCc1cccc(OC)c1 [Example 133, 3-(methoxymethyl)-N-[(3-methoxyphenyl)methyl]-1-({4-[(2-oxopyridin-1-yl)methyl]phenyl}methyl)pyrazole-4-carboxamide] |
| 5450 nM | > 10000 nM |  | 0% | NC(=O)c1cccc(CNC(=O)c2cn(Cc3ccc(Cn4ccccc4=O)cc3)nc2C2CC2)c1 [Example 49, N-[(3-carbamoylphenyl)methyl]-3-cyclopropyl-1-({4-[(2-oxopyridin-1-yl)methyl]phenyl}methyl)pyrazole-4-carboxamide] |
| 140 nM | > 10000 nM | 2% |  | COCc1nn(Cc2ccc(Cn3ccc(C)cc3=O)cc2)cc1C(=O)NCc1c(F)ccc(OC)c1F [Example 106, N-[(2,6-difluoro-3-methoxyphenyl)methyl]-3-(methoxymethyl)-1-({4-[(4-methyl-2-oxopyridin-1-yl)methyl]phenyl}methyl)pyrazole-4-carboxamide] |
| 16.8 nM | > 40000 nM | 0% |  | COCc1nn(Cc2ccc(Cn3ccccc3=O)cc2)cc1C(=O)NCc1cccc(OC)c1C(F)F [Example 69, N-{[2-(difluoromethyl)-3-methoxyphenyl]methyl}-3-(methoxymethyl)-1-({4-[(2-oxopyridin-1-yl)methyl]phenyl}methyl)pyrazole-4-carboxamide] |
| 28.3 nM | > 40000 nM | 5% |  | COCc1nn(Cc2ccc(Cn3ccccc3=O)cc2)cc1C(=O)NCc1cc(Cl)ccc1C#N [Example 76, N-[(5-chloro-2-cyanophenyl)methyl]-3-(methoxymethyl)-1-({4-[(2-oxopyridin-1-yl)methyl]phenyl}methyl)pyrazole-4-carboxamide] |
|  |  | 14% |  | COCc1nn(Cc2ccc(Cn3ccccc3=O)cc2)cc1C(=O)NCc1c(F)ccc(OC)c1C(F)F [Example 83, N-{[2-(difluoromethyl)-6-fluoro-3-methoxyphenyl]methyl}-3-(methoxymethyl)-1-({4-[(2-oxopyridin-1-yl)methyl]phenyl}methyl)pyrazole-4-carboxamide] |
| 191 nM | > 10000 nM | 0% |  | COc1cccc(CNC(=O)c2cn(Cc3ccc(Cn4ccccc4=O)cc3)c(C(F)(F)F)n2)c1F [Example 124, N-[(2-fluoro-3-methoxyphenyl)methyl]-1-({4-[(2-oxopyrldin-1-yl)methyl]phenyl}methyl)-2-(trifluoromethyl)imidazole-4-carboxamide] |
| 308 nM | > 40000 nM | 1% |  | COCc1nn(Cc2ccc(Cn3ccccc3=O)cc2)cc1C(=O)NCc1cc(F)cc(OC)c1 [Example 95, N-[(3-fluoro-5-methoxyphenyl)methyl]-3-(methoxymethyl)-1-({4-[(2-oxopyridin-1-yl)methyl]phenyl}methyl)pyrazole-4-carboxamide] |
|  |  | 0% |  | CCOc1cccc(CNC(=O)c2cn(Cc3ccc(Cn4cc(C)cn4)cc3)nc2C(F)(F)F)c1 [Example 6, N-[(3-ethoxyphenyl)methyl]-1-({4-[(4-methylpyrazol-1-yl)methyl]phenyl}methyl)-3-(trifluoromethyl)pyrazole-4-carboxamide] |
|  |  | 4% |  | COCc1nn(Cc2ccc(Cn3ccccc3=O)cc2)cc1C(=O)NCc1c(Cl)ccc(OC)c1F [Example 99, N-[(6-chloro-2-fluoro-3-methoxyphenyl)methyl]-3-(methoxymethyl)-1-({4-[(2-oxopyridin-1-yl)methyl]phenyl}methyl)pyrazole-4-carboxamide] |
| 2400 nM | > 10000 nM |  |  | COCc1nn(Cc2ccc(N3CCCC3)nc2)cc1C(=O)NCc1csc2ccc(Cl)cc12 [Example 46, N-[(5-chloro-1-benzothiophen-3-yl)methyl]-3-(methoxymethyl)-1-{[6-(pyrrolidin-1-yl)pyridin-3-yl]methyl}pyrazole-4-carboxamide] |
| 1840 nM | > 10000 nM |  |  | Cc1cnn(Cc2ccc(Cn3cc(C(=O)NCc4c(C)cccc4C)c(C(F)(F)F)n3)cc2)c1 [Example 25, N-[(2,6-dimethylphenyl)methyl]-1-({4-[(4-methylpyrazol-1-yl)methyl]phenyl}methyl)-3-(trifluoromethyl)pyrazole-4-carboxamide] |
| 514 nM | > 10000 nM |  |  | Cc1cnn(Cc2ccc(Cn3cc(C(=O)NCc4c(F)cccc4Cl)c(C(F)(F)F)n3)cc2)c1 [Example 14, N-[(2-chloro-6-fluorophenyl)methyl]-1-({4-[(4-methylpyrazol-1-yl)methyl]phenyl}methyl)-3-(trifluoromethyl)pyrazole-4-carboxamide] |
| 239 nM | > 10000 nM |  |  | COc1ccc(F)c(CNC(=O)c2cn(Cc3ccc(Cn4cc(C)cn4)cc3)nc2C(F)(F)F)c1 [Example 9, N-[(2-fluoro-5-methoxyphenyl)methyl]-1-({4-[(4-methylpyrazol-1-yl)methyl]phenyl}methyl)-3-(trifluoromethyl)pyrazole-4-carboxamide] |
| 20.4 nM | > 40000 nM |  |  | COCc1nn(Cc2ccc(Cn3ccccc3=O)cc2)cc1C(=O)NCc1c(F)cccc1C(F)F [Example 80, N-{[2-(difluoromethyl)-6-fluorophenyl]methyl}-3-(methoxymethyl)-1-({4-[(2-oxopyridin-1-yl)methyl]phenyl}methyl)pyrazole-4-carboxamide] |
| 2190 nM | > 10000 nM |  |  | Cc1cnn(Cc2ccc(Cn3cc(C(=O)NCc4ncccc4F)c(C(F)(F)F)n3)cc2)c1 [Example 29, N-[(3-fluoropyridin-2-yl)methyl]-1-({4-[(4-methylpyrazol-1-yl)methyl]phenyl}methyl)-3-(trifluoromethyl)pyrazole-4-carboxamide] |
| 364 nM | > 10000 nM |  |  | COc1cccc(CNC(=O)c2cn(Cc3ccc(Cn4cc(C)cn4)cc3)nc2C(F)(F)F)c1 [Example 5, N-[(3-methoxyphenyl)methyl]-1-({4-[(4-methylpyrazol-1-yl)methyl]phenyl}methyl)-3-(trifluoromethyl)pyrazole-4-carboxamide] |
| 539 nM | > 10000 nM |  |  | Cc1ccc(CNC(=O)c2cn(Cc3ccc(Cn4cc(C)cn4)cc3)nc2C(F)(F)F)cc1 [Example 8, N-[(4-methylphenyl)methyl]-1-({4-[(4-methylpyrazol-1-yl)methyl]phenyl}methyl)-3-(trifluoromethyl)pyrazole-4-carboxamide] |

| Structure (SMILES) | IC50 (Human plasma kallikrein) | IC50 (Human KLK1) | inhibition at 40 µM (Human FXIa) | % Inhibition @ 40 μM (human FXIa) (Human FXIa) |
| --- | --- | --- | --- | --- |
| CCc1cccc(CNC(=O)c2cn(Cc3ccc(Cn4ccccc4=O)cc3)nc2COC)c1F [Example 132, N-[(3-ethyl-2-fluorophenyl)methyl]-3-(methoxymethyl)-1-({4-[(2-oxopyridin-1-yl)methyl]phenyl}methyl)pyrazole-4-carboxamide] | 135 nM | > 40000 nM | 0% |  |
| COCc1nn(Cc2ccc(Cn3ccccc3=O)cc2)cc1C(=O)NCc1ccc(C)nc1 [Example 39, 3-(methoxymethyl)-N-[(6-methylpyridin-3-yl)methyl]-1-({4-[(2-oxopyridin-1-yl)methyl]phenyl}methyl)pyrazole-4-carboxamide] |  |  | 0% |  |
| COCc1nn(Cc2ccc(Cn3ccccc3=O)cc2)cc1C(=O)NCc1cccc(OC(F)F)c1F [Example 90, N-{[3-(difluoromethoxy)-2-fluorophenyl]methyl}-3-(methoxymethyl)-1-({4-[(2-oxopyridin-1-yl)methyl]phenyl}methyl)pyrazole-4-carboxamide] | 154 nM | > 40000 nM | 2% |  |
| COCc1nn(Cc2ccc(Cn3ccccc3=O)cc2)cc1C(=O)NCc1cnccc1C(F)(F)F [Example 37, 3-(methoxymethyl)-1-({4-[(2-oxopyridin-1-yl)methyl]phenyl}methyl)-N-{[4-(trifluoromethyl)pyridin-3-yl]methyl}pyrazole-4-carboxamide] |  |  | 0% |  |
| COCc1nn(Cc2ccc(Cn3ccccc3=O)cc2)cc1C(=O)NCc1ccc(C)nc1 [Example 32, 3-(methoxymethyl)-N-[(6-methylpyridin-3-yl)methyl]-1-({4-[(2-oxopyridin-1-yl)methyl]phenyl}methyl)pyrazole-4-carboxamide] | 7870 nM | > 10000 nM |  |  |
| COCc1nn(Cc2ccc(Cn3ccccc3=O)cc2)cc1C(=O)NCc1cccc(O)c1F [Example 129, N-[(2-fluoro-3-hydroxyphenyl)methyl]-3-(methoxymethyl)-1-({4-[(2-oxopyridin-1-yl)methyl]phenyl}methyl)pyrazole-4-carboxamide] | 437 nM |  | 0% |  |
